Measurements reported in patent publication US9296741B2, “Bromodomain inhibitors” (priority 2012, dated 2016).

How the values were obtained:
[1] = Human liver microsome stability assay; format: in vitro ADME; settings: both sexes
[2] = Rat liver microsome stability assay; format: in vitro ADME; settings: rat liver microsomes (male Sprague-Dawley), 0.5 μM test compound, 0.25 mg/mL microsomal protein, pH 7.4, 37° C.; read-out: Stability in rat liver microsomes (t1/2 in minutes)
[3] = Mouse liver microsome stability assay; format: in vitro ADME
[4] = system: breast cancer cell line MX-1; test: MX-1 cell line proliferation assay; format: cell-based, human; settings: Homo sapiens, MX1, 72 h; MX-1 cells, 3-day proliferation, Cell Titer Glo; read-out: Cellular proliferation: EC50
[5] = target: human BRD4 second bromodomain (BDII_E352-M457) (Homo sapiens (Human), UniProt O60885); test: TR-FRET bromodomain binding assay, BRD4 second bromodomain
[6] = target: human BRD4 first bromodomain (BDI_K57-E168) (Homo sapiens (Human), UniProt O60885); test: TR-FRET bromodomain binding assay, BRD4 first bromodomain
[7] = male, CD1, mouse, microsomes, pH 7.4

Structure (SMILES)	half-life at 0.5 μM ([1]; human, microsomes, pH 7.4)	half-life at 0.5 μM [2]	half-life at 0.5 μM [3, 7]	EC50 [4]	Ki [5]	Ki [6]	half-life at 0.5 μM ([1]; human liver microsomes, 0.5 μM test compound, 0.25 mg/mL microsomal protein, pH 7.4, 37° C., read-out: Stability in human liver microsomes (t1/2 in minutes))	half-life at 0.5 μM ([3]; mouse liver microsomes (male CD1), 0.5 μM test compound, 0.25 mg/mL microsomal protein, pH 7.4, 37° C., read-out: Stability in mouse liver microsomes (t1/2 in minutes))
Cn1cc(-c2ccccc2CN2CCOCC2)c2cc[nH]c2c1=O [Example 12, 6-methyl-4-[2-(morpholin-4-ylmethyl)phenyl]-1,6-dihydro-7H-pyrrolo[2,3-c]pyridin-7-one]	51 min	10 min	33 min	> 3000 nM				
COC(=O)Cc1ccc(OCc2ccccc2)c(-c2cn(C)c(=O)c3[nH]ccc23)c1 [Example 45, methyl [4-(benzyloxy)-3-(6-methyl-7-oxo-6,7-dihydro-1H-pyrrolo[2,3-c]pyridin-4-yl)phenyl]acetate]		2 min	3 min	233 nM				
Cn1cc(-c2cc(S(C)(=O)=O)ccc2Oc2ccc3ccncc3c2)c2cc[nH]c2c1=O [Example 172, 4-[2-(isoquinolin-7-yloxy)-5-(methylsulfonyl)phenyl]-6-methyl-1,6-dihydro-7H-pyrrolo[2,3-c]pyridin-7-one]	9 min	15 min	7 min		5.9 nM	13.3 nM		
Cn1cc(-c2cc(S(C)(=O)=O)ccc2Oc2cc(F)ccc2F)c2cc[nH]c2c1=O [Example 173, 4-[2-(2,5-difluorophenoxy)-5-(methylsulfonyl)phenyl]-6-methyl-1,6-dihydro-7H-pyrrolo[2,3-c]pyridin-7-one]	38 min	5 min	16 min		6.6 nM	15.7 nM		
Cn1cc(-c2cc(S(C)(=O)=O)ccc2Oc2ccc(F)c(F)c2)c2cc[nH]c2c1=O [Example 174, 4-[2-(3,4-difluorophenoxy)-5-(methylsulfonyl)phenyl]-6-methyl-1,6-dihydro-7H-pyrrolo[2,3-c]pyridin-7-one]	40 min	46 min	14 min		14.3 nM	19.2 nM		
Cn1cc(-c2cc(S(C)(=O)=O)ccc2Oc2cc(F)cc(F)c2)c2cc[nH]c2c1=O [Example 176, 4-[2-(3,5-difluorophenoxy)-5-(methylsulfonyl)phenyl]-6-methyl-1,6-dihydro-7H-pyrrolo[2,3-c]pyridin-7-one]	48 min	8 min	29 min		6 nM	21.3 nM		
Cc1ncccc1Oc1ccc(S(C)(=O)=O)cc1-c1cn(C)c(=O)c2[nH]ccc12 [Example 179, 6-methyl-4-{2-[(2-methylpyridin-3-yl)oxy]-5-(methylsulfonyl)phenyl}-1,6-dihydro-7H-pyrrolo[2,3-c]pyridin-7-one]	80 min	55 min	34 min		16.5 nM	22.5 nM		
Cc1ccc(F)cc1Oc1ccc(S(C)(=O)=O)cc1-c1cn(C)c(=O)c2[nH]ccc12 [Example 187, 4-[2-(5-fluoro-2-methylphenoxy)-5-(methylsulfonyl)phenyl]-6-methyl-1,6-dihydro-7H-pyrrolo[2,3-c]pyridin-7-one]	9 min	4 min	5 min		8.2 nM	24.8 nM		
Cn1cc(-c2cc(S(C)(=O)=O)ccc2Oc2ccc3cccnc3c2)c2cc[nH]c2c1=O [Example 188, 6-methyl-4-[5-(methylsulfonyl)-2-(quinolin-7-yloxy)phenyl]-1,6-dihydro-7H-pyrrolo[2,3-c]pyridin-7-one]	26 min	22 min	6 min		18 nM	29.4 nM		
Cn1cc(-c2cc(S(C)(=O)=O)ccc2Oc2ccc3c(c2)CCC3)c2cc[nH]c2c1=O [Example 191, 4-[2-(2,3-dihydro-1H-inden-5-yloxy)-5-(methylsulfonyl)phenyl]-6-methyl-1,6-dihydro-7H-pyrrolo[2,3-c]pyridin-7-one]	7 min	6 min	2 min		8.8 nM	17.8 nM		
CC(C)c1ccc(Oc2ccc(S(C)(=O)=O)cc2-c2cn(C)c(=O)c3[nH]ccc23)cc1 [Example 192, 6-methyl-4-{5-(methylsulfonyl)-2-[4-(propan-2-yl)phenoxy]phenyl}-1,6-dihydro-7H-pyrrolo[2,3-c]pyridin-7-one]	9 min	5 min	3 min		9.6 nM	51.3 nM		
Cn1cc(-c2cc(S(C)(=O)=O)ccc2Oc2cccc3ccncc23)c2cc[nH]c2c1=O [Example 193, 4-[2-(isoquinolin-8-yloxy)-5-(methylsulfonyl)phenyl]-6-methyl-1,6-dihydro-7H-pyrrolo[2,3-c]pyridin-7-one]	11 min	7 min	2 min		13.6 nM	70.4 nM		
Cn1cc(-c2cc(S(C)(=O)=O)ccc2Oc2cc(F)c(F)c(F)c2)c2cc[nH]c2c1=O [Example 194, 6-methyl-4-[5-(methylsulfonyl)-2-(3,4,5-trifluorophenoxy)phenyl]-1,6-dihydro-7H-pyrrolo[2,3-c]pyridin-7-one]	41 min	38 min	49 min		19.1 nM	28.9 nM		
Cn1cc(-c2ccccc2-c2ccccc2)c2cc[nH]c2c1=O [Example 196, 4-(biphenyl-2-yl)-6-methyl-1,6-dihydro-7H-pyrrolo[2,3-c]pyridin-7-one]	59 min	5 min	3 min		479 nM	9500 nM		
Cn1cc(-c2cc(S(C)(=O)=O)ccc2OCCN2CCNC2=O)c2cc[nH]c2c1=O [Example 218, 6-methyl-4-{5-(methylsulfonyl)-2-[2-(2-oxoimidazolidin-1-yl)ethoxy]phenyl}-1,6-dihydro-7H-pyrrolo[2,3-c]pyridin-7-one]	> 120 min	> 120 min	> 120 min		68.9 nM	69.3 nM		
CN1CCC[C@H]1COc1ccc(S(C)(=O)=O)cc1-c1cn(C)c(=O)c2[nH]ccc12 [Example 222, 6-methyl-4-[2-{[(2S)-1-methylpyrrolidin-2-yl]methoxy}-5-(methylsulfonyl)phenyl]-1,6-dihydro-7H-pyrrolo[2,3-c]pyridin-7-one]	65 min	80 min	98 min		969 nM	225 nM		
CN1CCCC1CCOc1ccc(S(C)(=O)=O)cc1-c1cn(C)c(=O)c2[nH]ccc12 (stereo not shown) [Example 225, 6-methyl-4-{2-[2-(1-methylpyrrolidin-2-yl)ethoxy]-5-(methylsulfonyl)phenyl}-1,6-dihydro-7H-pyrrolo[2,3-c]pyridin-7-one]	52 min	59 min	> 120 min		845 nM	264 nM		
Cn1cc(-c2cc(S(C)(=O)=O)ccc2OCCN2CCCC2=O)c2cc[nH]c2c1=O [Example 232, 6-methyl-4-{5-(methylsulfonyl)-2-[2-(2-oxopyrrolidin-1-yl)ethoxy]phenyl}-1,6-dihydro-7H-pyrrolo[2,3-c]pyridin-7-one]	57 min	> 120 min	> 120 min		443 nM	213 nM		
C=C(C)c1cc2c(-c3cc(S(C)(=O)=O)ccc3Oc3ccc(F)cc3F)cn(C)c(=O)c2[nH]1 [Example 291, 4-[2-(2,4-difluorophenoxy)-5-(methylsulfonyl)phenyl]-6-methyl-2-(prop-1-en-2-yl)-1,6-dihydro-7H-pyrrolo[2,3-c]pyridin-7-one]	16 min	8 min	16 min		23.7 nM	32.9 nM		
Cn1cc(-c2cc(CN3CCCC3)ccc2OCC2CC2)c2cc[nH]c2c1=O [Example 314, 4-[2-(cyclopropylmethoxy)-5-(pyrrolidin-1-ylmethyl)phenyl]-6-methyl-1,6-dihydro-7H-pyrrolo[2,3-c]pyridin-7-one]	81 min	4 min	6 min		1290 nM	1600 nM		
CCS(=O)(=O)Nc1cc(-c2cn(C)c(=O)c3[nH]ccc23)c(Oc2ccc(F)cc2F)cc1C#N [Example 324, N-[2-cyano-4-(2,4-difluorophenoxy)-5-(6-methyl-7-oxo-6,7-dihydro-1H-pyrrolo[2,3-c]pyridin-4-yl)phenyl]ethanesulfonamide]	> 120 min	> 120 min	> 120 min		1.2 nM	3.2 nM		
Cn1cc(-c2cc(C3=CCNCC3)ccc2OCC2CC2)c2cc[nH]c2c1=O [Example 340, 4-[2-(cyclopropylmethoxy)-5-(1,2,3,6-tetrahydropyridin-4-yl)phenyl]-6-methyl-1,6-dihydro-7H-pyrrolo[2,3-c]pyridin-7-one]		4 min			1250 nM	942 nM	> 120 min	9 min
CCS(=O)(=O)Nc1ccc(Oc2ccc(F)cc2F)c(-c2cn(C)c(=O)c3[nH]cc(CN4CCOCC4)c23)c1 [Example 350, N-{4-(2,4-difluorophenoxy)-3-[6-methyl-3-(morpholin-4-ylmethyl)-7-oxo-6,7-dihydro-1H-pyrrolo[2,3-c]pyridin-4-yl]phenyl}ethanesulfonamide]	59 min	32 min	23 min		505 nM	1400 nM		
